# How the values were obtained:
# Olaparib/AZD2281 = compound: O=C(c1cc(Cc2n[nH]c(=O)c3ccccc23)ccc1F)N1CCN(C(=O)C2CC2)CC1 [Olaparib/AZD2281]
# Ipatasertib/GDC0068 = compound: CC(C)NC[C@@H](C(=O)N1CCN(c2ncnc3c2[C@H](C)C[C@H]3O)CC1)c1ccc(Cl)cc1 [Ipatasertib/GDC0068]
# BSJ-01-175 = compound: CN(C)C/C=C/C(=O)Nc1ccc(O[C@@H]2CCC[C@@H](Nc3ncc(Cl)c(-c4c[nH]c5ccccc45)n3)C2)cc1 [BSJ-01-175]
# Doxorubicin = compound: COc1cccc2c1C(=O)c1c(O)c3c(c(O)c1C2=O)C[C@@](O)(C(=O)CO)C[C@@H]3O[C@H]1C[C@H](N)[C@H](O)[C@H](C)O1 [Doxorubicin]
# Paclitaxel = compound: CC(=O)O[C@H]1C(=O)[C@@]2(C)[C@H]([C@H](OC(=O)c3ccccc3)[C@]3(O)C[C@H](OC(=O)[C@H](O)[C@@H](NC(=O)c4ccccc4)c4ccccc4)C(C)=C1C3(C)C)[C@]1(OC(C)=O)CO[C@@H]1C[C@@H]2O [Paclitaxel]
# Luminespib/NVP-AUY922 = compound: CCNC(=O)c1noc(-c2cc(C(C)C)c(O)cc2O)c1-c1ccc(CN2CCOCC2)cc1 [Luminespib/NVP-AUY922]
# Flavopiridol [1] = compound: T1, CN1CC[C@H](c2c(O)cc(O)c3c(=O)cc(-c4ccccc4Cl)oc23)[C@H](O)C1 [Flavopiridol]
# Taselisib/GDC0032 = compound: Cc1nc(-c2cn3c(n2)-c2ccc(-c4cnn(C(C)(C)C(N)=O)c4)cc2OCC3)n(C(C)C)n1 [Taselisib/GDC0032]
# YKL-5-124 = compound: C=CC(=O)Nc1ccc(C(=O)Nc2[nH]nc3c2CN(C(=O)N[C@H](CN(C)C)c2ccccc2)C3(C)C)cc1 [YKL-5-124]; assay: GR value, 72 h; higher = faster growth (1 = untreated, <0 = killing);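 note: breast cancer and non-malignant breast epithelial lines, nine half-log doses, viable cells counted by Hoechst and LIVE/DEAD dye imaging versus time-zero plates and DMSO controls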
# BSJ-03-123 = compound: CC(=O)c1c(C)c2cnc(Nc3ccc(N4CCN(CCOCCOCCOCCNC(=O)COc5cccc6c5C(=O)N(C5CCC(=O)NC5=O)C6=O)CC4)cn3)nc2n(C2CCCC2)c1=O [BSJ-03-123]; assay: as above
# [2] = compound: CCc1cnn2c(NCc3ccc[n+]([O-])c3)cc(N3CCCC[C@H]3CCO)nc12; assay: as above
# THZ531 = compound: CN(C)C/C=C/C(=O)Nc1ccc(C(=O)N2CCC[C@@H](Nc3ncc(Cl)c(-c4c[nH]c5ccccc45)n3)C2)cc1 [THZ531]; assay: as above
# LEE011/Ribociclib = compound: CN(C)C(=O)c1cc2cnc(Nc3ccc(N4CCNCC4)cn3)nc2n1C1CCCC1 [LEE011/Ribociclib]; assay: as above
# Flavopiridol [3] = compound: T1, Flavopiridol; assay: as above
# [4] = compound: CC(=O)c1c(C)c2cnc(Nc3ccc(N4CCNCC4)cn3)nc2n(C2CCCC2)c1=O; assay: as above
# [5] = compound: CCN1CCN(Cc2ccc(Nc3ncc(F)c(-c4cc(F)c5nc(C)n(C(C)C)c5c4)n3)nc2)CC1; assay: as above
# ABT-737 = compound: CN(C)CC[C@H](CSc1ccccc1)Nc1ccc(S(=O)(=O)NC(=O)c2ccc(N3CCN(Cc4ccccc4-c4ccc(Cl)cc4)CC3)cc2)cc1[N+](=O)[O-] [ABT-737]
# 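Throughout, for GR50, 72 h: breast cancer and non-malignant breast epithelial cell lines, Deep Dye Drop or Dye Drop imaging, nine half-log doses, GR normalized to time-zero plates and DMSO-only controls.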
cell line,measurement,setting,value
HTERT_HME1,"GR50, 72 h",Olaparib/AZD2281,> 10 µM
same,"GR50, 72 h",Ipatasertib/GDC0068,> 10 µM
same,"GR50, 72 h",BSJ-01-175,0.00582 µM
same,"GR50, 72 h",Doxorubicin,0.00471 µM
same,"GR50, 72 h",Paclitaxel,0.00317 µM
same,"GR50, 72 h",Luminespib/NVP-AUY922,0.00855 µM
same,"GR50, 72 h",Flavopiridol [1],0.112 µM
same,"GR50, 72 h",Taselisib/GDC0032,0.148 µM
same,GR value,YKL-5-124; 0.001 µM,0.41 GR
same,GR value,YKL-5-124; 0.003162 µM,0.245 GR
same,GR value,YKL-5-124; 0.01 µM,0.16 GR
same,GR value,YKL-5-124; 0.03162 µM,0.177 GR
same,GR value,YKL-5-124; 0.1 µM,0.0758 GR
same,GR value,YKL-5-124; 0.3162 µM,0.0849 GR
same,GR value,YKL-5-124; 1 µM,0.0535 GR
same,GR value,YKL-5-124; 3.162 µM,-0.036 GR
same,GR value,YKL-5-124; 10 µM,-0.144 GR
same,GR value,BSJ-03-123; 0.001 µM,0.903 GR
same,GR value,BSJ-03-123; 0.003162 µM,0.87 GR
same,GR value,BSJ-03-123; 0.01 µM,0.78 GR
same,GR value,BSJ-03-123; 0.03162 µM,0.635 GR
same,GR value,BSJ-03-123; 0.1 µM,0.702 GR
same,GR value,BSJ-03-123; 0.3162 µM,0.551 GR
same,GR value,BSJ-03-123; 1 µM,0.386 GR
same,GR value,BSJ-03-123; 3.162 µM,0.34 GR
same,GR value,BSJ-03-123; 10 µM,-0.153 GR
same,GR value,[2]; 0.0001 µM,1.08 GR
same,GR value,[2]; 0.0003162 µM,1.07 GR
same,GR value,[2]; 0.001 µM,1.1 GR
same,GR value,[2]; 0.003162 µM,1.09 GR
same,GR value,[2]; 0.01 µM,0.754 GR
same,GR value,[2]; 0.03162 µM,-0.268 GR
same,GR value,[2]; 0.1 µM,-0.267 GR
same,GR value,[2]; 0.3162 µM,-0.27 GR
same,GR value,[2]; 1 µM,-0.28 GR
same,GR value,THZ531; 0.0001 µM,0.956 GR
same,GR value,THZ531; 0.0003162 µM,0.956 GR
same,GR value,THZ531; 0.001 µM,0.939 GR
same,GR value,THZ531; 0.003162 µM,1.03 GR
same,GR value,THZ531; 0.01 µM,1.11 GR
same,GR value,THZ531; 0.03162 µM,1.02 GR
same,GR value,THZ531; 0.1 µM,0.889 GR
same,GR value,THZ531; 0.3162 µM,0.179 GR
same,GR value,THZ531; 1 µM,-0.207 GR
same,GR value,LEE011/Ribociclib; 0.001 µM,0.864 GR
same,GR value,LEE011/Ribociclib; 0.003162 µM,0.776 GR
same,GR value,LEE011/Ribociclib; 0.01 µM,0.741 GR
same,GR value,LEE011/Ribociclib; 0.03162 µM,0.737 GR
same,GR value,LEE011/Ribociclib; 0.1 µM,0.623 GR
same,GR value,LEE011/Ribociclib; 0.3162 µM,0.568 GR
same,GR value,LEE011/Ribociclib; 1 µM,0.538 GR
same,GR value,LEE011/Ribociclib; 3.162 µM,0.467 GR
same,GR value,LEE011/Ribociclib; 10 µM,0.29 GR
same,GR value,Flavopiridol [3]; 0.0001 µM,1 GR
same,GR value,Flavopiridol [3]; 0.0003162 µM,0.975 GR
same,GR value,Flavopiridol [3]; 0.001 µM,0.942 GR
same,GR value,Flavopiridol [3]; 0.003162 µM,0.876 GR
same,GR value,Flavopiridol [3]; 0.01 µM,0.892 GR
same,GR value,Flavopiridol [3]; 0.03162 µM,0.806 GR
same,GR value,Flavopiridol [3]; 0.1 µM,0.536 GR
same,GR value,Flavopiridol [3]; 0.3162 µM,0.155 GR
same,GR value,Flavopiridol [3]; 1 µM,-0.408 GR
same,GR value,[4]; 0.0003162 µM,1.03 GR
same,GR value,[4]; 0.001 µM,1.06 GR
same,GR value,[4]; 0.003162 µM,1.03 GR
same,GR value,[4]; 0.01 µM,0.956 GR
same,GR value,[4]; 0.03162 µM,0.796 GR
same,GR value,[4]; 0.1 µM,0.615 GR
same,GR value,[4]; 0.3162 µM,0.458 GR
same,GR value,[4]; 1 µM,0.354 GR
same,GR value,[4]; 3.162 µM,0.235 GR
same,GR value,[5]; 0.001 µM,1.05 GR
same,GR value,[5]; 0.003162 µM,0.987 GR
same,GR value,[5]; 0.01 µM,0.867 GR
same,GR value,[5]; 0.03162 µM,0.718 GR
same,GR value,[5]; 0.1 µM,0.588 GR
same,GR value,[5]; 0.3162 µM,0.433 GR
same,GR value,[5]; 1 µM,0.279 GR
same,GR value,[5]; 3.162 µM,0.136 GR
same,GR value,[5]; 10 µM,0.0346 GR
MDAMB157,"GR50, 72 h",Olaparib/AZD2281,5.39 µM
same,"GR50, 72 h",Ipatasertib/GDC0068,> 10 µM
same,"GR50, 72 h",Doxorubicin,0.00323 µM
same,"GR50, 72 h",Paclitaxel,0.00205 µM
same,"GR50, 72 h",ABT-737,6.41 µM
same,"GR50, 72 h",Luminespib/NVP-AUY922,0.00418 µM
same,"GR50, 72 h",Taselisib/GDC0032,1.36 µM
same,GR value,[2]; 0.0001 µM,1.07 GR
same,GR value,[2]; 0.0003162 µM,1.05 GR
same,GR value,[2]; 0.001 µM,1.06 GR
same,GR value,[2]; 0.003162 µM,0.982 GR
same,GR value,[2]; 0.01 µM,0.929 GR
same,GR value,[2]; 0.03162 µM,-0.488 GR
same,GR value,[2]; 0.1 µM,-0.86 GR
same,GR value,[2]; 0.3162 µM,-0.899 GR
same,GR value,[2]; 1 µM,-0.915 GR
same,GR value,[4]; 0.0003162 µM,0.945 GR
same,GR value,[4]; 0.001 µM,0.976 GR
same,GR value,[4]; 0.003162 µM,0.969 GR
same,GR value,[4]; 0.01 µM,1.08 GR
same,GR value,[4]; 0.03162 µM,1.02 GR
same,GR value,[4]; 0.1 µM,1.02 GR
same,GR value,[4]; 0.3162 µM,0.965 GR
same,GR value,[4]; 1 µM,1.05 GR
same,GR value,[4]; 3.162 µM,0.991 GR
same,GR value,[5]; 0.001 µM,1.01 GR
same,GR value,[5]; 0.003162 µM,1.08 GR
same,GR value,[5]; 0.01 µM,0.993 GR
same,GR value,[5]; 0.03162 µM,0.928 GR
same,GR value,[5]; 0.1 µM,0.913 GR
same,GR value,[5]; 0.3162 µM,0.727 GR
same,GR value,[5]; 1 µM,0.578 GR
same,GR value,[5]; 3.162 µM,0.441 GR
same,GR value,[5]; 10 µM,-0.587 GR
